Data from patent publication US20240067662A1, “KRAS INHIBITORS” (Bristol-Myers Squibb Company, priority 2022, published 2024).

biological target: GMPPNP-loaded KRAS G12C (Homo sapiens, UniProt P01116, G12C); test: KRAS G12C RAF Disruption Assay (HTRF); format: biochemical; details: recombinant GMPPNP-loaded KRAS G12C (5 nM), 20 min with compound; GST-RAF1 RBD (9 nM); HTRF signal; read-out: KRASG12C RAF Disruption Assay (IC50)
Outline: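 GMPPNP-loaded KRAS G12C (5 nM) was preincubated with compound for 20 min at room temperature in Tris pH 7.5 buffer with NaCl, MgCl2, DTT and BSA. GST-RAF1 RBD (9 nM) was added for 20 min, then SA-Tb (0.25 nM) for 3 h. IC50 was fitted from the HTRF 520/495 ratio.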

Chain of GMPPNP-loaded KRAS G12C (P01116 1-188 isoform P01116-2 G12C): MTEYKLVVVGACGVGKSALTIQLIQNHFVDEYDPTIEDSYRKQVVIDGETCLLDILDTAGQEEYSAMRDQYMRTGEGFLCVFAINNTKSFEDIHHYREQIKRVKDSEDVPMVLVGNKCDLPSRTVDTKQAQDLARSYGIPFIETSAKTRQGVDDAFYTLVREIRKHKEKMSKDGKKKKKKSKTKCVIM

| Structure (SMILES) | IC50 |
| --- | --- |
| C#Cc1c(F)c(F)cc2cccc(-c3ncc4c(N5CCN(C(=O)/C(F)=C/c6ccccn6)CC5)nc(OC[C@@]56CCCN5C[C@H](F)C6)nc4c3F)c12 [Compound 99, (Z)-1-(4-(7-(8-ethynyl-6,7-difluoronaphthalen-1-yl)-8-fluoro-2-(((2R, 7aS)-2-fluorotetrahydro-IH-pyrrolizin-7a(5H)-yl)methoxy)pyrido[4,3-d]pyrimidin-4-yl)piperazin-1-yl)-2-fluoro-3-(pyridin-2-yl)prop-2-en-1-one] | 70 nM |
| C#Cc1cccc2cccc(-c3ncc4c(N5CCN(C(=O)/C(F)=C/c6ccccn6)C[C@H]5C)nc(OC[C@@]56CCCN5C[C@H](F)C6)nc4c3F)c12 [Example 75, (Z)-1-((3R)-4-(7-(8-ethynylnaphthalen-1-yl)-8-fluoro-2-(((2R, 7aS)-2-fluorotetrahydro-1H-pyrrolizin-7a(5H)-yl)methoxy)pyrido[4,3-d]pyrimidin-4-yl)-3-methylpiperazin-1-yl)-2-fluoro-3-(pyridin-2-yl)prop-2-en-1-one] | 57 nM |
| C#Cc1cccc2cccc(-c3ncc4c(N(C)[C@H]5CN(C(=O)/C(F)=C/c6nccs6)C[C@H]5F)nc(OC[C@@]56CCCN5C[C@H](F)C6)nc4c3F)c12 [Compound 129, (Z)-1-((3S,4R)-3-((7-(8-ethynylnaphthalen-1-yl)-8-fluoro-2-(((2R, 7aS)-2-fluorotetrahydro-1H-pyrrolizin-7a(5H)-yl)methoxy)pyrido[4,3-d]pyrimidin-4-yl)(methyl)amino)-4-fluoropyrrolidin-1-yl)-2-fluoro-3-(thiazol-2-yl)prop-2-en-1-one] | 200 nM |
| C#Cc1cccc2cccc(-c3ncc4c(N5CCC6C5CCN6C(=O)/C(F)=C/c5ccccn5)nc(OC[C@@]56CCCN5C[C@H](F)C6)nc4c3F)c12 (single isomer, unassigned) [Compound 107] | 5600 nM |
| N#CC[C@H]1CN(c2nc(OC[C@@]34CCCN3C[C@H](F)C4)nc3c(F)c(-c4ccccc4C(F)(F)F)ncc23)CCN1C(=O)/C(F)=C/c1ccccn1 [Example 33, 2-((S)-4-(8-fluoro-2-(((2R, 7aS)-2-fluorotetrahydro-1H-pyrrolizin-7a(5H)-yl)methoxy)-7-(2-(trifluoromethyl)phenyl)pyrido[4,3-d]pyrimidin-4-yl)-1-((Z)-2-fluoro-3-(pyridin-2-yl)acryloyl)piperazin-2-yl)acetonitrile] | 75 nM |
| C#Cc1cccc2cccc(-c3ncc4c(N(C)C5CCN(C(=O)/C(F)=C/c6ccccn6)C5C)nc(OC[C@@]56CCCN5C[C@H](F)C6)nc4c3F)c12 (single isomer, unassigned) [Example 74 trans isomer 2] | 110 nM |
| C#Cc1cccc2cccc(-c3ncc4c(N5CCN(C(=O)/C(F)=C/c6ccccn6)C[C@@H]5C)nc(OC[C@@]56CCCN5C[C@H](F)C6)nc4c3F)c12 [Example 63, (Z)-1-((S)-4-(7-(8-ethynylnaphthalen-1-yl)-8-fluoro-2-(((2R, 7aS)-2-fluorotetrahydro-1H-pyrrolizin-7a(5H)-yl)methoxy)pyrido[4,3-d]pyrimidin-4-yl)-3-methylpiperazin-1-yl)-2-fluoro-3-(pyridin-2-yl)prop-2-en-1-one] | 180 nM |
| C#Cc1c(F)ccc2cc(O)cc(-c3ncc4c(N5C[C@H]6CC[C@@H](C5)N6C(=O)/C(F)=C/c5nnc(C)s5)nc(OC[C@@]56CCCN5C[C@H](F)C6)nc4c3F)c12 [Compound 14, (Z)-1-((1R, 5S)-3-(7-(8-ethynyl-7-fluoro-3-hydroxynaphthalen-1-yl)-8-fluoro-2-(((2R, 7aS)-2-fluorotetrahydro-1H-pyrrolizin-7a(5H)-yl)methoxy)pyrido[4,3-d]pyrimidin-4-yl)-3,8-diazabicyclo[3.2.1]octan-8-yl)-2-fluoro-3-(5-methyl-1,3,4-thiadiazol-2-yl)prop-2-en-1-one] | 22 nM |
| CN(c1nc(OC[C@@]23CCCN2C[C@H](F)C3)nc2c(F)c(-c3cccc4cccc(C#N)c34)ncc12)[C@@H]1CCN(C(=O)/C(F)=C/c2nccs2)C1 [Compound 114, 8-(8-fluoro-4-(((R)-1-((Z)-2-fluoro-3-(thiazol-2-yl)acryloyl)pyrrolidin-3-yl)(methyl)amino)-2-(((2R, 7aS)-2-fluorotetrahydro-1H-pyrrolizin-7a(5H)-yl)methoxy)pyrido[4,3-d]pyrimidin-7-yl)-1-naphthonitrile] | 719 nM |
| C#Cc1c(F)ccc2cc(O)cc(-c3ncc4c(N5CCN(C(=O)/C(F)=C/c6nccs6)C[C@@H]5C)nc(OC[C@@]56CCCN5C[C@H](F)C6)nc4c3F)c12 [Example 64, (Z)-1-((S)-4-(7-(8-ethynyl-7-fluoro-3-hydroxynaphthalen-1-yl)-8-fluoro-2-(((2R, 7aS)-2-fluorotetrahydro-1H-pyrrolizin-7a(5H)-yl)methoxy)pyrido[4,3-d]pyrimidin-4-yl)-3-methylpiperazin-1-yl)-2-fluoro-3-(thiazol-2-yl)prop-2-en-1-one] | 7 nM |
| C#Cc1c(F)ccc2cccc(-c3ncc4c(N5CCN(C(=O)/C(F)=C/c6ccccn6)C[C@@H]5C)nc(OC[C@@]56CCCN5C[C@H](F)C6)nc4c3F)c12 [Compound 89, (Z)-1-((S)-4-(7-(8-ethynyl-7-fluoronaphthalen-1-yl)-8-fluoro-2-(((2R, 7aS)-2-fluorotetrahydro-1H-pyrrolizin-7a(5H)-yl)methoxy)pyrido[4,3-d]pyrimidin-4-yl)-3-methylpiperazin-1-yl)-2-fluoro-3-(pyridin-2-yl)prop-2-en-1-one] | 37 nM |
| N#CC[C@H]1CN(c2nc(OC[C@@]34CCCN3C[C@H](F)C4)nc3c(F)c(-c4cccc(F)c4C(F)(F)F)ncc23)CCN1C(=O)/C(F)=C/c1nccs1 [Example 71, 2-((S)-1-((Z)-2-fluoro-3-(thiazol-2-yl)acryloyl)-4-(8-fluoro-7-(3-fluoro-2-(trifluoromethyl)phenyl)-2-(((2R, 7aS)-2-fluorotetrahydro-1H-pyrrolizin-7a(5H)-yl)methoxy)pyrido[4,3-d]pyrimidin-4-yl)piperazin-2-yl)acetonitrile] | 40 nM |
| CN1CCC[C@H]1COc1nc(N2CCN(C(=O)/C(F)=C/c3nccs3)CC2)c2cnc(-c3cccc4cccc(Cl)c34)c(F)c2n1 [Compound 22, (S,Z)-1-(4-(7-(8-chloronaphthalen-1-yl)-8-fluoro-2-((1-methylpyrrolidin-2-yl)methoxy)pyrido[4,3-d]pyrimidin-4-yl)piperazin-1-yl)-2-fluoro-3-(thiazol-2-yl)prop-2-en-1-one] | 1900 nM |
| C#Cc1cccc2c(F)ccc(-c3ncc4c(N5CCN(C(=O)/C(F)=C/c6ccccn6)CC5)nc(OC[C@@]56CCCN5C[C@H](F)C6)nc4c3F)c12 [Compound 87, (Z)-1-(4-(7-(8-ethynyl-4-fluoronaphthalen-1-yl)-8-fluoro-2-(((2R, 7aS)-2-fluorotetrahydro-1H-pyrrolizin-7a(5H)-yl)methoxy)pyrido[4,3-d]pyrimidin-4-yl)piperazin-1-yl)-2-fluoro-3-(pyridin-2-yl)prop-2-en-1-one] | 1600 nM |
| Nc1nc2c(-c3ncc4c(N5CCN(C(=O)/C(F)=C/c6nccs6)CC5)nc(OC[C@@]56CCCN5C[C@H](F)C6)nc4c3F)c(F)cc(F)c2s1 [Example 67, (Z)-1-(4-(7-(2-amino-5,7-difluorobenzo[d]thiazol-4-yl)-8-fluoro-2-(((2R, 7aS)-2-fluorotetrahydro-1H-pyrrolizin-7a(5H)-yl)methoxy)pyrido[4,3-d]pyrimidin-4-yl)piperazin-1-yl)-2-fluoro-3-(thiazol-2-yl)prop-2-en-1-one] | 41 nM |
| C#Cc1c(F)ccc2cccc(-c3ncc4c(N5CCN(C(=O)/C(F)=C/c6ccccn6)CC5)nc(OC[C@@]56CCCN5C[C@H](F)C6)nc4c3F)c12 [Example 31, (Z)-1-(4-(7-(8-ethynyl-7-fluoronaphthalen-1-yl)-8-fluoro-2-(((2R, 7aS)-2-fluorotetrahydro-1H-pyrrolizin-7a(5H)-yl)methoxy)pyrido[4,3-d]pyrimidin-4-yl)piperazin-1-yl)-2-fluoro-3-(pyridin-2-yl)prop-2-en-1-one] | 64 nM |
